According to US20220304957A1, “ANTI-CANCER COMPOSITIONS AND METHODS OF USE” (Board of Supervisors of Louisiana State University and …, priority 2019, published 2022):
Like-named read-outs stand apart in the source and are kept apart here.

Columns and labels:
[1] = Stability in human blood (HPLC); assay type: in vitro ADME; settings: 50 μM added, 37 °C, 48-hour time point
Protocol: Aliquots of 50 μM PP1 and FF in DMSO were added to 500 μl to heparinized human blood to a final concentration of 50 μM. Following incubation at 37° C. for the indicated time points, the samples were frozen at −80° C., and later prepared for HPLC-based detection of the compounds. Please note that FF is converted to FA in the presence of human blood. […] Data represent average values with standard deviation (n=3). panel B: Water solubility. FF and PP1, were added to water to a final concentration of 50 mM and sonicated in an ultrasonic bath (Branson 1510 Digital Heated Ultrasonic bath) for one hour at room temperature. The samples were then centrifuged for 10 minutes at 16000×g, and the supernatant filtered through 0.45 μm syringe filter. […] The PPAR transcriptional activity was determined in HepG2 cells by the JsTkpGL3 reporter plasmid, which contains a firefly luciferase gene driven by the PPRE, which consists of three copies of the J site from the apo-AII gene promoter. […] The luciferase activity was detected with Dual-Luciferase reporter assay system (Promega, Madison, Wis.), and the resulting luminescence measured with Synergy 2 microplate reader (BioTek, Winooski, Vt.). […]
In this experiment, 50 μM of PP1 and 50 μM of FF were incubated with human blood at […], at indicated time points. […] In contrast, nearly 25 μM of PP1 was still detected at the 48-hour time point (FIG. 4A; left panel).

[2] = system: GL-261-luc mouse glioblastoma cell line; experiment: Cell death, trypan blue, GL-261; settings: 5-50 μM, 96 h
Protocol: The percentage of cell death was calculated at 96-hour time point for all experimental conditions.

[3] = system: LN-229 human glioblastoma cells; settings: for % cell death: 72-/96-hour time points

CN(CCO)C(=O)C(C)(C)Oc1ccc(C(=O)c2ccc(Cl)cc2)cc1 [PP1, 2-[4-(4-chlorobenzoyl)phenoxy]-N-(2-hydroxyethyl)-N,2-dimethylpropanamide]
compound still detected in human blood [1]: ~25 µM
in vitro cytotoxicity [2]: high in vitro cytotoxicity
% cell death ([3]; 5 μM): 74+/−3%
% cell death ([3]; 10 μM): 92+/−2%
cell death ([3]; 25 and 50 μM, 72- and 96-hour time points): extensive cell death
concentration triggering extensive glioblastoma cell death, fold lower than FF ([3]; in vitro): ~5 fold
